Patent publication US20260240795A1 (KYOTO P[…] UNIVERSITY CORPORATION, priority 2023, published 2026)

Test system: AMPK
Experiment: AMPK activating activity in HK-2 cells treated with tunicamycin, Western blot
Type: cell-based, human
Conditions: tunicamycin 5 μg/ml with or without sephin1 1 μM, 24 hours, compared to untreated cells
Method: The HK-2 cell line is a proximal tubular cell line derived from normal kidney immortalized by transduction with human papilloma virus 16 (HPV-16) E6/E7 genes.
HK-2 cells were seeded in a six well plate at a cell density of 7×10^4 cells per well 24 hours prior to the start of the study (T−24). […] 24 hours later (at T24) cells were recovered and protein was analyzed by Western blot analysis.

For tunicamycin, the “AMPK levels (AMPK/GAPDH)” value was “reduced”.
